Entries after “also recorded” stand apart in the source; their conditions may differ.

The subject of series [1] is granulocyte-macrophage progenitors (CFU-GM). Briefly: cells. The procedure: (§1) Myelosuppression is often a dose limiting side effect of chemotherapeutic agents. […] The toxicities to human granulocyte-macrophage progenitors (CFU-GM) of 1b, 1c, and VLB was assessed by measuring inhibition of CFU-GM proliferation in cultures continuously exposed to each agent alone and compared to the toxicities to sensitive and resistant MCF7 in tumor cell clonogenic assays.
(§2) METHOD: The CFLI-GM assay measures clonal proliferation of granulocyte/macrophage precursors in semisolid agar cultures. The progeny of the granulocyte/macrophage precursors remain in proximity of the progenitor cells and form colonies. Colonies which contain greater than 40 cells after 10-12 days of culture are counted using an inverted phase contrast microscope. The tumor cell clonogenic assays measure clonal proliferation of tumor cells. In this assay, 300-500 cells are plated in 10 cm^2 wells, allowed to adhere overnight, and are treated the following day. Tumor cell colonies were counted after 10-12 days of culture. The times of exposure in these experiments are similar; however, the concentrations of FCS are 20% in the CFU-GM assay and 10% in the tumor cell clonogenic assays. The IC50's are calculated as described above for the MTT proliferation assays. (See Example 4).
(§3) To facilitate this comparison, a CFLI-GM toxicity index was calculated by dividing the CFU-GM IC50 by the respective tumor cell clonogenic IC50's in sensitive and resistant cells.

Another series in a line: in vitro. The following applies: human. The method, then: as §1, §2, §3
For series [2], the system named is UOK-39 human renal cell line. Briefly: Vinblastine accumulation assay, UOK-39. The following applies: 10 μM, 10 nM [3H] vinblastine. Format: cell-based. The procedure: (§4) These cell lines are models of intrinsic resistance.
(§5) [^3 H] vinblastine was added to a final concentration of 10 nM and the cells were incubated for 2.5 hours. At this time, the cells were washed 3 times in ice cold PBS and lysed in buffer containing 0.1% Triton X-100.

The test system of series [3] is catalytic subunits of protein kinase A. Description: Protein kinase A catalytic subunit inhibition. It is filed as biochemical. From the text:
(§6) One possible explanation for stimulation of phosphorylation of P-glycoprotein and MARCKS is that 1c may activate PKC or other cellular kinases by signal transduction pathways that have not yet been identified to phosphorylate these proteins. An alternative explanation for stimulation of phosphorylation of P-glycoprotein and MARCKS is that 1c inhibits protein phosphatases.

The next series deals with casein kinase 2. Briefly: Casein kinase 2 inhibition. Format: biochemical.
Description: as §6

Series [4] concerns the target P-glycoprotein in MCF7 Adr 10 membrane vesicles (Homo sapiens, UniProt P08183). Briefly: biochemical. The following applies: read-out: decrease of specific binding of [3H] VLB.
In another series the test system is calmodulin kinase. Description: Calmodulin kinase inhibition. It is filed as biochemical.
Description: as §6

In a further series the test system is MCF7 WT. Briefly: 72 hour MTT proliferation assay, potentiation of sensitivity in MCF7 WT. It is filed as cell-based, human. The following applies: MCF7 WT. The procedure:
In 72 hour MTT proliferation assays using the following method, compounds 1b, 1c and 1d were assessed for inhibition of Vinca alkaloid and anthracycline drug resistance in MDR MCF7. Additionally, compounds 1b and 1c were assessed for potentiation of sensitivity to Vinca alkaloid and anthracycline drugs in the parental MCF7 WT cell line.
METHOD: 5000 cells per well were plated in 100 μl of IMDM containing 10% FCS and allowed to adhere overnight. The following day the cells were treated with N-substituted 1,4-diaminoanthraquinones and exposed to graded concentrations of antineoplastic agents. 50 μl of IMDM 10% FCS containing either vehicle or N-substituted 1,4-diaminoanthraquinones at 3 times the final tested concentration was added to cells at timed intervals. The plates were incubated for 2 hours at 37° C. to allow maximal cellular accumulation of N-substituted 1,4-diaminoanthraquinones. 40 μl aliquots of IMDM 10% FCS containing either vehicle or graded concentrations of antineoplastic drugs at 5 times the final concentration were added to treatment groups. Following this addition, 10 μl of IMDM 10% FCS containing either vehicle or N-substituted 1,4-diaminoanthraquinone at 5 times the final concentration was added to each group of wells. The cells were incubated for 72 hours after treatment. At this time the viable cells in each treatment group were estimated in a colorimetric assay by adding MTT and incubating the cells at 37° C. for 3-4 hours. The media in each well was aspirated and MTT formazan was solubilized in isopropyl alcohol acidified with 0.1 N HCl. The absorbance of the solubilized formazan was quantitated using a plate reader spectrophotometer. […] The concentrations of antineoplastic drugs which inhibited proliferation by 50% (IC50's) were estimated by calculating a percentage from the ratio: antineoplastic drug treated groups/control group absorbance and plotting the dose response curve on semilog paper. The IC50 was estimated from this curve. To assess the effects of inhibition of resistance by N-substituted 1,4-diaminoanthraquinones, the percentages were calculated relative to cell groups treated with resistance modifier alone and IC50's calculated as above. A reversal factor was calculated by dividing the IC50 to the antineoplastic drug alone (Control group) by the IC50 to antineoplastic drug in cells treated with resistance modifier.
A general note: Formazan colour is commonly taken as a measure of viable cells.

For series [5], the system named is A704 human renal cell line. Description: Vinblastine accumulation assay, A704. Format: cell-based. The following applies: 10 μM, 10 nM [3H] vinblastine. The method, then:
as §4, §5

A further series has as its system mice. Description: Preliminary animal toxicity studies. The following applies: 400 mg/kg. Format: in vivo.
For series [6], the system named is MCF7 Adr 10 human breast cancer cells. Briefly: Vinblastine accumulation assay, MCF7 Adr 10. Format: cell-based. The procedure: [^3 H] vinblastine ([^3 H] VLB) was added to a final concentration of 100 nM and the cells were incubated for 2.5 hours. At this time, the cells were washed 3 times in ice cold PBS and lysed in buffer containing 0.1% Triton X-100. Net accumulation of [^3 H] vinblastine was expressed as pmol/mg protein. In [^3 H]

Series [7] is described as follows: Partition in Bligh-Dyer extracts. Format: physicochemical. The following applies: Bligh-Dyer extracts of treated cells. The procedure:
At these wavelengths, there was minimal absorbance by cellular components contained in the chloroform phase. […] METHOD: […] The monolayers were treated with 25 μM 1b or 1c and incubated at 37° C. After incubating the samples for the times indicated in FIG. 1, the monolayers were washed three times with DPBS and detached using 1 ml of Trypsin-EDTA.An aliquot of the cell suspension was counted using a Coulter Counter and a 0.8 ml aliquot was extracted in a Bligh-Dyer extraction (Bligh et at., Can. J. Biochem. 31:911-916 (1959)). The absorbance of the lower chloroform phase was measured at 648 nm and 600 nm using a spectrophotometer. The amount of 1b or 1c present in the extract was quantitated from a standard curve performed in cell extracts. The data is expressed as nmol anthraquinone/10^6 cells.

P-glycoprotein in MCF7 Adr 10 membrane vesicles, sequence (P08183 whole entry): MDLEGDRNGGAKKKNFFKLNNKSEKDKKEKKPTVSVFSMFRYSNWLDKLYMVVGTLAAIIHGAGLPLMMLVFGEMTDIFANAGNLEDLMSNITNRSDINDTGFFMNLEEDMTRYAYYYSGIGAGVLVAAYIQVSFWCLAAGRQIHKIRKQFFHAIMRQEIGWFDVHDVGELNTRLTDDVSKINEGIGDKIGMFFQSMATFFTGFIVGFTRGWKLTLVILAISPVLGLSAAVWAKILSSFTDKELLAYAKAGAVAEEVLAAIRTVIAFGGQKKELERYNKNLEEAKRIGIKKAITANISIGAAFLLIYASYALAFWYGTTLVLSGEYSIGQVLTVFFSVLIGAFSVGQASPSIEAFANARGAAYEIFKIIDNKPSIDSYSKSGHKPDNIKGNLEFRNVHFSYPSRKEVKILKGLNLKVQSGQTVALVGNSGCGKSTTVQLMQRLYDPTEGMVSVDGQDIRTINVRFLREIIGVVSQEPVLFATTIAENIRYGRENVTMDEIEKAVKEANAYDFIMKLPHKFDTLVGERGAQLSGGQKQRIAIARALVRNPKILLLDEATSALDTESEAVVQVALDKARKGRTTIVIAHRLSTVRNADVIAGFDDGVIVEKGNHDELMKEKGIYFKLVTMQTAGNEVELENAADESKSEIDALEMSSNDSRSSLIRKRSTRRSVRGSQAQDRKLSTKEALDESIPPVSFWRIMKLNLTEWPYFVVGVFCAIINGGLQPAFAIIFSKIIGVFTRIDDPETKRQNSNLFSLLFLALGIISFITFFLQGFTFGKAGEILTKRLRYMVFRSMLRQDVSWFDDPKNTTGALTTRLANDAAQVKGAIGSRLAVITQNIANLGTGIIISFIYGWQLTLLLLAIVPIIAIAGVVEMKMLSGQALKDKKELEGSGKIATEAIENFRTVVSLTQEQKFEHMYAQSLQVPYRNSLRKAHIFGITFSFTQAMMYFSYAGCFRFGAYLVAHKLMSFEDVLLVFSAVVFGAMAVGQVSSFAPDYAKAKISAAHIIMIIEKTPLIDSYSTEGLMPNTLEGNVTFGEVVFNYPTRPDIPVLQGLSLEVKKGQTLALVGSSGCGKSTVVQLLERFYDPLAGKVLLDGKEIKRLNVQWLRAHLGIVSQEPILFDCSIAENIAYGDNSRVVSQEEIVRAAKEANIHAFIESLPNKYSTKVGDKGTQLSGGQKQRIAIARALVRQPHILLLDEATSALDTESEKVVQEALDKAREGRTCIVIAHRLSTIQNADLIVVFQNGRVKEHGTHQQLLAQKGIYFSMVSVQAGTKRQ

In general, IC50 refers to the concentration needed to halve the response being measured. Take `O=C1c2ccccc2C(=O)c2c(NCCCN3CCOCC3)ccc(NCCCN3CCOCC3)c21` [Compound 1c, 1,4-bis-[[3'(4-morpholino)propyl]amino]anthraquinone]: in series [1] (Homo sapiens, CFU-GM, read-out: Continuous Exposure IC50, CFU-GM), the IC50 stood at 7.8 µM. In addition, the “CFU-GM Toxicity Index (CFU-GM IC50 / Tumor Cell Clonogenic IC50)” value in [1] (human) was found to be 19.5. For the same compound, the selectivity ratio in “in vitro” (CFU-GM Toxicity Index (CFU-GM IC50 / Tumor Cell Clonogenic IC50)) is 9.8. Moreover, the selectivity ratio in “in vitro” (cfu-gm vs mcf7, lower sensitivity of CFU-GM than drug sensitive (WT) and MDR cancer cell lines) lay within 10 to 20. The “vinblastine accumulation relative to verapamil” value in series [2] is “comparable or superior to verapamil activity”. In addition, in series [3], the “protein kinase A inhibitory activity” value was “did not inhibit”. Further, the “casein kinase 2 inhibitory activity” value in the series on casein kinase 2 is listed as “did not inhibit”. Also, in series [4], the inhibition at 5 µM worked out at 29%, the inhibition at 10 µM stood at 42% and the inhibition at 25 µM was 69%. In addition, in the series on calmodulin kinase, the “calmodulin kinase inhibitory activity” value is given as “did not inhibit”. In the series with MCF7 WT, the “effect on toxicity of vincristine in drug sensitive cells” value was “enhances toxicity of vincristine in drug sensitive cells”. In addition, the “Reversal Factor (VCR)” value in the series with MCF7 WT ([1c] 1.0 μM) worked out at 1.9. Moreover, the “vinblastine accumulation relative to verapamil” value in series [5] is recorded as “comparable or superior to verapamil activity”. For the same compound, the toxicity in mice result in the series with mice is “not toxic at 400 mg/kg in mice”. Besides, the minimal effective concentration in series [6] (Homo sapiens, NCI/ADR-RES, 100 nM [3H] VLB, 2.5 hours, FIGS. 2 and 3, read-out: lowest concentration which causes a doubling of basal accumulation of vinblastine) was found to be 0.5 µM. Further, the “activity in vinblastine accumulation assay / drug accumulation” value in series [6] (MDR MCF7) is “greater activity than 1b; also recorded: greatest activity in drug accumulation assays; also recorded: increase vinblastine accumulation in MDR MCF7; also recorded: activity superior to verapamil at concentrations between 0.5 μM and 10 μM”. Besides, the “blue color partitioning with cellular phospholipids in the lower chloroform phase” value in [7] was above 95%.

(Values after patent publication US5436243A, “Aminoanthraquinone derivatives to combat multidrug resistance” (priority 1993, dated 1995).)
